Measurements: US10508113B2, “Inhibitors of tyrosine kinase 2 mediated signaling” (AbbVie Inc., priority 2018, dated 2019)

What follows are molecules tested against T1, Jak1 (Homo sapiens, UniProt P23458) (assay: Jak1 (PSTAT3 TF1) alpha screen assay: inhibition of IL-6 induced phosphorylation of STAT3 in TF1 cells). Settings: calculated from tabulated EC50 data (Jak1 / Tyk2).
T1 construct: endogenous in cells; host or cells: TF1 cells
Type: cell-based
Procedure: 2. JAK1 (PSTAT3 TF1) ALPHA SCREEN ASSAY
IL-6 is known to transduce its signal through IL-6 receptor via Jak1. Activity against Jak1 was therefore measured by determining inhibition of IL-6 induced phosphorylation of STAT3 in TF1 cells.
Cell Type: TF1 Cells; Culture Medium: RPMI 1640 Medium, 2mM L-glutamine, 10% heat- inactivated fetal bovine serum (FBS), 10 mM hydroxyethyl piperazineethanesulfonic acid (HEPES), and 2 ng/mL recombinant human interleukin-6(IL-6); Assay Medium: Dulbecco's Modified Eagle Medium (DMEM) medium with 2 mM L-glutamine, 10 mM HEPES, 100 U/mL penicillin/streptomycin, 1.5 g/L sodium bicarbonate, 4.5 g/L glucose, 1 mM sodium pyruvate, 10% heat-inactivated FBS; Compound Preparation: Compounds are dissolved in 100% dimethyl sulfoxide (DMSO).
Day One—Starve Cells: 4 Flasks for one 384 plate (spin down @1000 rpm for 10 minutes and add RPMI 1640 Medium, 2 mM L-glutamine, 10% FBS, 10 mM HEPES with no IL-6 -incubate overnight).
Day Two—Compound Dilutions:
i. Manual 8-point 1:5 dilution curve: 5 mM top concentration dispensed in row A of a
Corning 96-well polypropylene plate, columns 2-12. DMSO dispensed in position A01 for low and high controls. Compounds were serially diluted 1:5 by adding 10 μL stock to […] DMSO down the plate.
ii. Media dilution of compounds: Serially diluted compounds were further diluted 1:12.5 in assay medium by adding 4 μL compound to 46 μL assay medium in a Corning 96-well polypropylene plate.
384 Alpha Screen Plate Set up: Transfer 2.5 μL/well of compound solution from assay media dilution plate. Replicates were vertical, one column of the 96-well dilution plate goes into one column on the 384-well plate twice. Plated 1×10^5 starved cells/well in 5 μL. Washed cells in 10 mL DMEM medium after spinning down. Brought cell pellet up in assay media. Counted live cells. Multiplied by dilution factor and 10,000 (constant) to get the concentration of viable cells. Multiplied by volume of assay media used to bring up cells to get the total number of live cells. Divided by 20,000,000 cells/mL to get the volume needed. Cells were plated at 5 μL/well in gray Alpha Screen 384-well plate. Spinned the plate to bring the contents to the bottom of the wells at 300 rpm for 60 seconds. Top final compound concentration: 25 μM. Sealed with adhesive and tapped gently. Incubated plate at 37° C. for 30 minutes. c. IL-6 Stimulation (pSTAT3)
Once cells were in incubator, immediately prepared working stock of IL-6 (100 ng/mL final concentration). IL-6 stock=10 μg/mL of IL-6 in phosphate buffered saline with 0.1% bovine serum albumin. Diluted 1:25 by adding 60 μL stock IL-6 to 1440 μL assay media. Added 2.5 μL IL-6 to each well. Spinned plate at 300 rpm briefly; tapped the plate gently before covering with an adhesive seal. Incubated plate at 37° C. for 30 minutes.
Added 2.5 μL of 5X Lysis buffer to each well. Incubated at room temperature on orbital shaker for 10 minutes.
e. Protein (A) Acceptor Beads Preparation:
Phosphorylated Signal Transducer and Activator of Transcription 3 (pSTAT3) was quantified using the PerkinElmer SureFire pSTAT3 (Tyrosine 705) Assay. Calculated total volume needed (wells×[…]×25%). Divided total volume by 5 to get volume of activation buffer. Subtracted volume of activation buffer from total volume and divide by 40 to get volume of acceptor beads (add last). Total volume−acceptor bead volume−activation buffer=volume of reaction buffer. Added 15 μL to each well and covered with foil. Shaked on orbital shaker for 2 hours at 500 rpm.
f. Streptavidin Donor Beads Preparation:
Calculated total volume needed (wells×[…]×25%). Divided total volume by 20 to get volume of donor beads (add last). Subtracted volume of donor beads from total volume to get volume of dilution buffer. Added 6 μL to each well and covered with foil. Shaked on orbital shaker overnight at 500 rpm.
Read plate on a Perkin Elmer Envision. […]

T1 sequence (P23458 whole entry): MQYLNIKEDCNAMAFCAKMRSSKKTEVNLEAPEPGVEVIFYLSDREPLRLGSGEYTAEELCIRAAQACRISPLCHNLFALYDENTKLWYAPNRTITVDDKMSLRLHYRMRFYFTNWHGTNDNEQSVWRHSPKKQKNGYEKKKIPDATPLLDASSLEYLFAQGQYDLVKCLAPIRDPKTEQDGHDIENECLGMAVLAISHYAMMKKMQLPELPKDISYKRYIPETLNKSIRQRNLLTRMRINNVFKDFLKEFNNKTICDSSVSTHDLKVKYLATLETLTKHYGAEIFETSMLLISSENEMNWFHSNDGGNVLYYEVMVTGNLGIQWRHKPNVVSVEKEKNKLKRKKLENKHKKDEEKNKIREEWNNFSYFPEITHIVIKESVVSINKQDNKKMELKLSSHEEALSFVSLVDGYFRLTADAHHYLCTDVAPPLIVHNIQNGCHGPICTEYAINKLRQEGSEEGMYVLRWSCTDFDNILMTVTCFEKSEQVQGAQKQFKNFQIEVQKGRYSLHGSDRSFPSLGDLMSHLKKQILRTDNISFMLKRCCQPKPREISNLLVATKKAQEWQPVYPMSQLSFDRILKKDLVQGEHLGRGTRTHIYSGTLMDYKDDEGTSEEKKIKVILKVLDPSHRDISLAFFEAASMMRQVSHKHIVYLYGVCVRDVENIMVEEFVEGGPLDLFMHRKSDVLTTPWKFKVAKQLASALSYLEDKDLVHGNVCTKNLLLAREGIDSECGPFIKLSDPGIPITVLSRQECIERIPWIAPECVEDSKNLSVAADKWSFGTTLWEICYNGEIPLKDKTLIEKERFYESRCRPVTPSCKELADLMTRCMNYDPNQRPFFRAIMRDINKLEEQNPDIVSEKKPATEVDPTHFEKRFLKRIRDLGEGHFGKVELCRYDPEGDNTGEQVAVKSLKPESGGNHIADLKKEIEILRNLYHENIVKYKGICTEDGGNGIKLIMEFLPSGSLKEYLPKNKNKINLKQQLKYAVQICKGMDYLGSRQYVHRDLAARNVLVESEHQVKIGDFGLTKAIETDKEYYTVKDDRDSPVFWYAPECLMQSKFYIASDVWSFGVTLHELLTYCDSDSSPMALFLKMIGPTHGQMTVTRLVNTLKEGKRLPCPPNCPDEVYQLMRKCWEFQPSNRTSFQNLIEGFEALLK

Compound	Tyk2 selectivity over Jak1
CO[C@@]1(c2cc(OC3COC3)cc(-c3cn(C)c4cnc(NC(C)=O)cc34)n2)CCOC1 [Example 8, (R)-N-(3-(6-(3-Methoxytetrahydrofuran-3-yl)-4-(oxetan-3-yloxy)pyridin-2-yl)-1-methyl-1H-pyrrolo[2,3-c]pyridin-5-yl)acetamide]	244-fold
CO[C@@]1(c2cc(C(F)F)cc(-c3cn(C4COC4)c4cnc(NC(N)=O)cc34)n2)CCOC1 [Example 12b.4, (R)-1-(3-(4-(difluoromethyl)-6-(3-methoxytetrahydrofuran-3-yl)pyridin-2-yl)-1-(oxetan-3-yl)-1H-pyrrolo[2,3-c]pyridin-5-yl)urea]	889-fold
CC[C@@]1(c2cccc(-c3cn(C)c4cnc(NC(C)=O)cc34)n2)CCOC1 [Example 2.3, (S)-N-(3-(6-(3-ethyltetrahydrofuran-3-yl)pyridin-2-yl)-1-methyl-1H-pyrrolo[2,3-c]pyridin-5-yl)acetamide]	188-fold
NC(=O)Nc1cc2c(-c3cccc(C4(O)COC4)n3)cn([C@@H]3CCOC3)c2cn1 [Example 15, (R)-1-(3-(6-(3-Hydroxyoxetan-3-yl)pyridin-2-yl)-1-(tetrahydrofuran-3-yl)-1H-pyrrolo[2,3-c]pyridin-5-yl)urea]	80-fold
COc1cc(-c2cn(C3COC3)c3cnc(NC(C)=O)cc23)nc([C@]2(OC)CCOC2)c1 [Example 5, (R)-N-(3-(4-methoxy-6-(3-methoxytetrahydrofuran-3-yl)pyridin-2-yl)-1-(oxetan-3-yl)-1H-pyrrolo[2,3-c]pyridin-5-yl)acetamide]	>901-fold
COc1cc(-c2cn(C)c3cnc(NC(C)=O)cc23)nc([C@]2(OC)CCOC2)c1 [Example 20, (R)-N-(3-(4-Methoxy-6-(3-methoxytetrahydrofuran-3-yl)pyridin-2-yl)-1-methyl-1H-pyrrolo[2,3-c]pyridin-5-yl)acetamide]	328-fold
CO[C@@]1(c2cc(C(F)F)cc(-c3cn([C@H]4CCOC4)c4cnc(NC(N)=O)cc34)n2)CCOC1 [Example 12b.3, 1-(3-(4-(difluoromethyl)-6-((R)-3-methoxytetrahydrofuran-3-yl)pyridin-2-yl)-1-((S)-tetrahydrofuran-3-yl)-1H-pyrrolo[2,3-c]pyridin-5-yl)urea]	1214-fold
CO[C@@]1(c2cc(C#N)cc(-c3cn([C@@H]4CC4(F)F)c4cnc(NC(N)=O)cc34)n2)CCOC1 [Example 12a.3, 1-(3-(4-cyano-6-((R)-3-methoxytetrahydrofuran-3-yl)pyridin-2-yl)-1-((R)-2,2-difluorocyclopropyl)-1H-pyrrolo[2,3-c]pyridin-5-yl)urea]	>1515-fold
Cn1cc(-c2cccc(C3(O)COC3)n2)c2cc(NC(N)=O)ncc21 [Example 14, 1-(3-(6-(3-hydroxyoxetan-3-yl)pyridin-2-yl)-1-methyl-1H-pyrrolo[2,3-c]pyridin-5-yl)urea]	20-fold
CO[C@@]1(c2cc(C(F)F)cc(-c3cn([C@@H]4CCOC4)c4cnc(NC(N)=O)cc34)n2)CCOC1 [Example 12b.2, 1-(3-(4-(difluoromethyl)-6-((R)-3-methoxytetrahydrofuran-3-yl)pyridin-2-yl)-1-((R)-tetrahydrofuran-3-yl)-1H-pyrrolo[2,3-c]pyridin-5-yl)urea]	2667-fold
CO[C@]1(c2cc(C)cc(-c3cn(C)c4cnc(NC(N)=O)cc34)n2)CCOC1 [Example 1b.3, (S)-1-(3-(6-(3-methoxytetrahydrofuran-3-yl)-4-methylpyridin-2-yl)-1-methyl-1H-pyrrolo[2,3-c]pyridin-5-yl)urea]	10-fold

The next lines start with the values.

Tyk2 selectivity over Jak1	Compound
>641-fold	COc1cc(-c2cn([C@@H]3CCOC3)c3cnc(NC(C)=O)cc23)nc([C@]2(OC)CCOC2)c1 [Example 5.2, N-(3-(4-methoxy-6-((R)-3-methoxytetrahydrofuran-3-yl)pyridin-2-yl)-1-((R)-tetrahydrofuran-3-yl)-1H-pyrrolo[2,3-c]pyridin-5-yl)acetamide]
50-fold	CO[C@]1(c2cc(OCC3COC3)cc(-c3cn(C)c4cnc(NC(C)=O)cc34)n2)CCOC1 [Example 6.2, (S)-N-(3-(6-(3-methoxytetrahydrofuran-3-yl)-4-(oxetan-3-ylmethoxy)pyridin-2-yl)-1-methyl-1H-pyrrolo[2,3-c]pyridin-5-yl)acetamide]
81-fold	COc1cc(-c2cn(C)c3cnc(NC(N)=O)cc23)nc([C@@]2(OC)CCOC2)c1 [Example 12.7, (S)-1-(3-(4-methoxy-6-(3-methoxytetrahydrofuran-3-yl)pyridin-2-yl)-1-methyl-1H-pyrrolo[2,3-c]pyridin-5-yl)urea]
6400-fold	CO[C@@]1(c2cc(C)cc(-c3cn([C@H]4C[C@@H](C#N)C4)c4cnc(NC(C)=O)cc34)n2)CCOC1 [Example 17.5, N-(1-((cis)-3-cyanocyclobutyl)-3-(6-((R)-3-methoxytetrahydrofuran-3-yl)-4-methylpyridin-2-yl)-1H-pyrrolo[2,3-c]pyridin-5-yl)acetamide]
909-fold	CO[C@@]1(c2cc(C(F)F)cc(-c3cn(C)c4cnc(NC(N)=O)cc34)n2)CCOC1 [Example 12.5, (R)-1-(3-(4-(difluoromethyl)-6-(3-methoxytetrahydrofuran-3-yl)pyridin-2-yl)-1-methyl-1H-pyrrolo[2,3-c]pyridin-5-yl)urea]
157-fold	CO[C@@]1(c2cc(C)cc(-c3cn([C@H]4C[C@H](C#N)C4)c4cnc(NC(C)=O)cc34)n2)CCOC1 [Example 17.4, N-(1-((trans)-3-cyanocyclobutyl)-3-(6-((R)-3-methoxytetrahydrofuran-3-yl)-4-methylpyridin-2-yl)-1H-pyrrolo[2,3-c]pyridin-5-yl)acetamide]
